Source: US20110008304A1, “USE OF CELLS TO FACILITATE TARGETED DELIVERY OF NANOPARTICLE THERAPIES” (KANSAS STATE UNIVERSITY RESEARCH FOUNDATION, priority 2007, published 2011)
Entries after “also recorded” stand apart in the source; their conditions may differ. Values belong to the compound of their own block, whether it stands above or below them.

Tests used:
HL-60 = test: NCI 60 human tumor cell lines, SRB protein assay, HL-60; assay type: cell-based; conditions: HL-60, SRB protein assay after 2 days; read-out: GI50 (growth inhibition at 50%)
Excerpt: (§1) An analog of AQ10, AQ9 (NSC 727286), has been evaluated by NCI's 60 human tumor cell lines using the SRB protein assay to estimate cell growth and viability after 2 days. […] AQ10 is less cytotoxic than AQ9 in L1210 and HL60 cell lines (Table 1).

HL-60 tumor cells = test: MTS:PMS viability assay at day 4 in vitro, HL-60; assay type: cell-based; conditions: MTS:PMS assay at day 4 in vitro, means ± SD, n = 3
LL/2 tumor cells = test: MTS:PMS viability assay at day 4 in vitro, LL/2; assay type: cell-based; conditions: MTS:PMS assay at day 4 in vitro, means ± SD, n = 3
HCT-116 colon = test: NCI 60 human tumor cell lines, SRB protein assay, HCT-116; assay type: cell-based; conditions: SRB protein assay after 2 days, read-out: GI50 (growth inhibition at 50%)
Excerpt: as §1

SN12 C renal = test: NCI 60 human tumor cell lines, SRB protein assay, SN12 C; assay type: cell-based; conditions: SRB protein assay after 2 days, read-out: GI50 (growth inhibition at 50%)
Excerpt: as §1

[1] = test system: MDA-MB-231 breast tumor cell line; test: NCI 60 human tumor cell lines, SRB protein assay, MDA-MB-231; assay type: cell-based; conditions: SRB protein assay after 2 days, read-out: GI50 (growth inhibition at 50%)
Excerpt: as §1
(§2) Similarly TT compounds such as TT24 were synthesized from TT2 and evaluated for their antitumor activities (Hua et al. 2004. Tetrandedron 60:10155-63, Hua et al. […], Hua et al. 2006. Anticancer Agents Med. Chem. 6:303-18, Wang et al. 2002. Cancer Lett. 188:73-83). Selective bromination of TT2 with N-bromosuccinimide (NBS) in DMF followed by addition of allylmethylamine and removal of the allyl protecting group with Pd(PPh3)4 afforded TT24. TT24 (NSC 727284-K), has been evaluated by NCI's 60 human tumor cell lines using the SRB protein assay to estimate cell growth and viability after 2 days.

MOLT-4 = test: NCI 60 human tumor cell lines, SRB protein assay, MOLT-4; assay type: cell-based; conditions: MOLT-4, SRB protein assay after 2 days; read-out: GI50 (growth inhibition at 50%)
Excerpt: as §1

K562 = test: NCI 60 human tumor cell lines, SRB protein assay, K562; assay type: cell-based; conditions: K562, SRB protein assay after 2 days; read-out: GI50 (growth inhibition at 50%)
Excerpt: as §1

SR = test: NCI 60 human tumor cell lines, SRB protein assay, SR; assay type: cell-based; conditions: SRB protein assay after 2 days, read-out: GI50 (growth inhibition at 50%)
Excerpt: as §1

L1210 tumor cells = test: MTS:PMS viability assay at day 4 in vitro, L1210; assay type: cell-based; conditions: MTS:PMS assay at day 4 in vitro, means ± SD, n = 3
Pan 02 cells = test: Pan 02 cell viability, MTT assay; assay type: cell-based, mouse
Experimental: Cell proliferation evaluation. The number of viable cells was evaluated by the MTT ([…]-2,5-diphenyl-tetrazolium bromide) assay (Roche Diagnostics GmbH, Germany) as well as hemocytometer and trypan blue exclusion analysis. Pan 02 cells were seeded in a 96 well plate. […] After incubation for 48 hrs, the medium was replaced with fresh medium containing 0.5 mg of MTT reagent per ml of medium and incubated for four hours at 37° C. Then, 100 μL of solubilization reagent was added to each well and incubated overnight at 37° C. Absorbance was measured in an ELISA plate reader at 550 nm, with the absorbance at 690 nm to correct for background, and viability was expressed as the percentage of untreated controls. To validate the MTT assay, trypan blue exclusion and hemocytometer counting assay was performed in parallel. All experiments were done in duplicate and were performed three times.
Statistical analysis. All values are expressed as means ±SE. Values of untreated cells were taken as […]. Statistical analysis of all Pan 02 cell proliferation assays were analyzed using repeated measures of ANOVA. […] Statistical significance was considered if P<0.05.

[2] = Solubility in water / encapsulation; assay type: physicochemical
TK+UCMS cells = test: Cell number of TK+UCMS cells exposed to pro-drug; assay type: cell-based; conditions: dose range of 0 μM to 1600 μM
Excerpt: UCMS cells have been successfully engineered for stable expression of HSV-thymidine kinase. […] Thus, the suicide gene system is effective; after GCV administration to mice bearing tumors into which the UCMS-NG-TH (UCMS cells containing nanogels loaded with therapeutic agents) have trafficked, the NG-TH will be released into the tumor interstitium when the stem cells undergo apoptosis.

[3] = test system: T47D breast tumor cell line; test: NCI 60 human tumor cell lines, SRB protein assay, T47D; assay type: cell-based; conditions: SRB protein assay after 2 days, read-out: GI50 (growth inhibition at 50%)
Excerpt: as §2

L1210 cells = test: Inhibition of L1210 cells by TT24; assay type: cell-based
NCI/ADR-RES = test: NCI 60 human tumor cell lines, SRB protein assay, NCI/ADR-RES; assay type: cell-based; conditions: NCI/ADR-RES breast, SRB protein assay after 2 days; read-out: GI50 (growth inhibition at 50%)
Excerpt: as §2

[4] = Anti-cancer effect of drug-loaded nanogels, test not specified; assay type: cell-based

Compound: Nc1nc(O)c2ncn(COC(CO)CO)c2n1 [Ganciclovir]
Cell number of TK+UCMS cells (TK+UCMS cells): Decreased cell number

Compound: Triton
Anti-cancer / antitumor effect [4]: significantly potentiated the anti-cancer effect

Second part, led by results:

IC50 (HL-60 tumor cells): 79 ± 3 nM
IC50 (LL/2 tumor cells): 680 ± 87 nM
IC50 (L1210 tumor cells): 26 ± 1 nM
Compound: O=C1C=CC(=O)c2cc3cc(CBr)ccc3cc21 [AQ9]
GI50 (HL-60): < 10 nM
GI50 (HCT-116 colon): 606 nM
GI50 (SN12 C renal): 379 nM
GI50 [1]: 735 nM
GI50 (MOLT-4): < 10 nM
GI50 (K562): 339 nM
GI50 (SR): 37.1 nM

IC50 (HL-60 tumor cells; Homo sapiens, HL-60, 96 h): 125 ± 7 nM
IC50 (LL/2 tumor cells; LL/2, 96 h): 494 ± 59 nM
Solubility in water [2]: insoluble
IC50 (L1210 tumor cells; Mus musculus, L1210, 96 h): 37 ± 2 nM
Compound: O=C1C=CC(=O)c2cc3cc(CO)ccc3cc21 [AQ10, 6-(hydroxymethyl)-1,4-anthracenedione]
Effect of AQ10 dissolved in DMSO on Pan 02 cell viability / growth (Pan 02 cells; MTT assay, 48 hrs, doses of 4.2, 8.4 and 16.8 μM, vs untreated and DMSO treated cells): significantly attenuated; also recorded: significant effect; also recorded: significantly decreased
Growth attenuation of Pan 02 cells, AQ10 in nanogel PEG-PEI relative to AQ10 alone (in DMSO) (Pan 02 cells; comparison of AQ10-nanogel PEG-PEI with AQ10 alone): three to four times less effective

IC50 (L1210 cells): 48 nM
Compound: CNC1=CC(=O)C2=C(C1=O)C1C3=C(C(=O)C(Br)=C(OC)C3=O)C2c2ccccc21 (stereo not shown) [TT24]
GI50 [3]: 1440 nM
GI50 [1]: 1410 nM
GI50 (NCI/ADR-RES): 1550 nM
